In ChEMBL document CHEMBL1667725, “Tuberatolides, potent FXR antagonists from the Korean marine tunicate Botryllus tuberatus” (J Nat Prod, 2011):
Active and inactive are the calls of the source.

Tests used:
[1] = biological target: T1, Glucocorticoid receptor (Homo sapiens) (UniProt P04150); experiment: Effect on human Gal4-fused GR at 10 uM by luciferase reporter gene assay
T1 sequence (whole entry): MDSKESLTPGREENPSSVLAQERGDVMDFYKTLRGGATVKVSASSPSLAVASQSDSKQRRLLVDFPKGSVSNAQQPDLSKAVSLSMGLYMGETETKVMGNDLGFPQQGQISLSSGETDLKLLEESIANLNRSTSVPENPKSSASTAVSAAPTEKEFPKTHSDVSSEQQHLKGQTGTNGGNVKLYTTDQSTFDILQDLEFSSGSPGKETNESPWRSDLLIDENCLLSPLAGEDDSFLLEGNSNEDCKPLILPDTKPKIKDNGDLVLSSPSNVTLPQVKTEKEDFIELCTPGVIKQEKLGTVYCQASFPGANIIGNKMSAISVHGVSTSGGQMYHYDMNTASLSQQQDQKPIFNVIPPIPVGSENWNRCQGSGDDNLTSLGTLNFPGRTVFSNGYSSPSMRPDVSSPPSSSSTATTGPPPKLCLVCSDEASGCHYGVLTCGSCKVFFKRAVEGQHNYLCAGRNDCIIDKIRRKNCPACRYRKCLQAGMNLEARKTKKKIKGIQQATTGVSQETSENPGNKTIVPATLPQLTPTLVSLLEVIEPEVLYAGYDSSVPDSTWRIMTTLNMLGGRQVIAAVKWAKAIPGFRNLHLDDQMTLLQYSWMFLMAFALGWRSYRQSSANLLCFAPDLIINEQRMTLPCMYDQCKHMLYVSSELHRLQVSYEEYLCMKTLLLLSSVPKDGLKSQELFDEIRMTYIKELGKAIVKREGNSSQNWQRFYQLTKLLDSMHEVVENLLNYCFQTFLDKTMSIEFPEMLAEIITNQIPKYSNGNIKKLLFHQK

[2] = biological target: T2, Androgen receptor (Homo sapiens) (UniProt P10275); experiment: Effect on human Gal4-fused AR at 10 uM by luciferase reporter gene assay
T2 sequence (whole entry): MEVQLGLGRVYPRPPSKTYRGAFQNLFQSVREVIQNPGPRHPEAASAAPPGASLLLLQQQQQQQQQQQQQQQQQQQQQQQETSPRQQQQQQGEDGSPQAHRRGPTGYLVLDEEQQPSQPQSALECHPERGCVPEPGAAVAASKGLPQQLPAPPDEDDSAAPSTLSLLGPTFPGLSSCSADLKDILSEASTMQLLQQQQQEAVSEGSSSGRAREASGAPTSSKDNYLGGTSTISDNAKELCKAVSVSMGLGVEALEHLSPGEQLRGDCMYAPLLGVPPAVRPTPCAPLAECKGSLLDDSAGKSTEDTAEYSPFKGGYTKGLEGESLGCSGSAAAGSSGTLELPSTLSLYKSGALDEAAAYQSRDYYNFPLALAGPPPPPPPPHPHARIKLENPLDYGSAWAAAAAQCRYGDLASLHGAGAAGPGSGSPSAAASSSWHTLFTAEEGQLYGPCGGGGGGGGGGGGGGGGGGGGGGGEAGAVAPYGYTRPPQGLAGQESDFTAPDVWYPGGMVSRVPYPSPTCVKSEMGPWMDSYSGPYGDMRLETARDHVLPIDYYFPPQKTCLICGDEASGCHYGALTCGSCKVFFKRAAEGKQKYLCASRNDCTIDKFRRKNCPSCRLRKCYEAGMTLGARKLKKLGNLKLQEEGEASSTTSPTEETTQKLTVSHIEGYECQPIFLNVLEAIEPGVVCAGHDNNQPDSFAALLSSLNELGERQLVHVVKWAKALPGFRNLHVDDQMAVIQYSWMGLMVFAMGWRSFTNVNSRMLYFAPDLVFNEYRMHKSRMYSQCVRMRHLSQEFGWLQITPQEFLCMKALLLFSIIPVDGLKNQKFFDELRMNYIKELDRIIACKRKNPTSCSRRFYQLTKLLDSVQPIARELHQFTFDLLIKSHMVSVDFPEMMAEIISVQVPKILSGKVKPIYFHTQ

[3] = biological target: T3, Estrogen receptor (Homo sapiens) (UniProt P03372); experiment: Effect on human Gal4-fused ERalpha at 10 uM by luciferase reporter gene assay
T3 sequence (whole entry): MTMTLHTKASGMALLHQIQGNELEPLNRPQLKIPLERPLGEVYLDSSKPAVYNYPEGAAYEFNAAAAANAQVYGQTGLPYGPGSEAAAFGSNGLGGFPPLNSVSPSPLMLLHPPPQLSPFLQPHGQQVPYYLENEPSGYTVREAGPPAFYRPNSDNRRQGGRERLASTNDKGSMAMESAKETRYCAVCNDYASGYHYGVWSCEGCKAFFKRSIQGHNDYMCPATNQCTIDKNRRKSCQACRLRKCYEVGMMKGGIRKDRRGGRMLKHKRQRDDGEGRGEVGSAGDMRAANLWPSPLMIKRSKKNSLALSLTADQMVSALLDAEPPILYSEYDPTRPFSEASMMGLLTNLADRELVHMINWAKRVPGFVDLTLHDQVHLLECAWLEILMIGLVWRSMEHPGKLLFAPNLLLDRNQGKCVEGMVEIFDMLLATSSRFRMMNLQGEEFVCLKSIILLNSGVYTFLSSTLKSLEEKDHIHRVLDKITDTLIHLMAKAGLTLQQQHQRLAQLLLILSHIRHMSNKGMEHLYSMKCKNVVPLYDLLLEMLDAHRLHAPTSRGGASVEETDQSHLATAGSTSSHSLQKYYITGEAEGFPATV

Measured: Activity

CC(C)=CCCC1=C[C@@H](C/C(C)=C/CC[C@]2(C)C=Cc3cc(O)cc(C)c3O2)OC1=O [2'-EPI-TUBERATOLIDE B]
inactive: all assays above

CC(C)=CCC/C(=C/CC/C(C)=C/CC[C@]1(C)C=Cc2cc(O)cc(C)c2O1)C(=O)O [(R)-SARGACHROMENOL]
inactive: all assays above

CC(C)=CCC/C(=C/CC/C(C)=C/CC[C@@]1(C)C=Cc2cc(O)cc(C)c2O1)C(=O)O [(S)-SARGACHROMENOL]
inactive: all assays above

CC(=O)CC/C=C(\C)C[C@@H]1C=C(CCC=C(C)C)C(=O)O1 [TUBERATOLIDE A]
inactive: all assays above

CC(C)=CCCC1=C[C@@H](C/C(C)=C/CC[C@@]2(C)C=Cc3cc(O)cc(C)c3O2)OC1=O [TUBERATOLIDE B]
inactive: all assays above

CC(C)=CCCC1=C[C@@H](C/C(C)=C/CC/C(C)=C/CC2=CC(=O)C=C(C)C2=O)OC1=O [YEZOQUINOLIDE]
inactive: all assays above
